# Legend:
# [1] = AMD patients; cited from earlier work
# [2] = lutein supplementation in human; cited from earlier work
# [3] = lutein supplementation and AMD incidence (our studies); type: in vivo; settings: supplementation of 10 mg/day
# Method: Therefore, the subject composition preferably provides preferably 10 mg of pure lutein per composition, e.g. per capsule.
Molecule,visual field loss [1],macular pigment [2],AMD incidence [3]
Zinc,slows visual field loss,,
CC1=C[C@H](O)CC(C)(C)[C@H]1/C=C/C(C)=C/C=C/C(C)=C/C=C/C=C(C)/C=C/C=C(C)/C=C/C1=C(C)C[C@@H](O)CC1(C)C [Lutein],,increased macular pigment,decreases the AMD incidence
